For series [1], the system named is RG2, clone N32 glioblastoma in the right brain hemisphere. Put plainly: Intracranial pressure in rats with implanted RG2-N32 glioblastoma after nasal peptide. The class given is in vivo, Fisher 344 rats. An excerpt:
(§1) Adult male Fisher 344 rats were purchased from Charles River, Germany. The body weight at the time for the experiments was 230-250 g. The animals had water and pelleted feed ad libitum. Permission to the experiments was granted by the Regional Animal Experiments Ethical Committee, and national and EU rules were followed.
Cultured cells of the established glioma cell line RG2, clone N32, were stereotactically deposited in the right striatum of the brain of adult Fisher 344 rats (A. T. Aas, A Brun, C. Blennow, S. Strömblad and L. G. Salford (1995). The RG2 glioma model. J. Neuro-Oncology 23, 175-183; R. F. Barth and B. Kauer ([…]). Rat brain tumor models in experimental neuro-oncology: the C6, 9L, T9, RG2, F98, BT4C, RT-2 and CNS-1 gliomas. (J Neuro-Oncology 94, 299-312). After 18-22 days, a tumor, fulfilling established criteria for glioblastoma, was demonstrable in the right hemisphere, invading adjacent brain parenchyma (FIGS. 1, 2). […] FIG. 4 is showing the implantation of pressure sensors (Samba 3200; Samba Sensors A B, V. Frölunda, Sweden), one in each hemisphere. The intracranial pressure was measured to be in the range of 25-50 mm Hg (FIG. 4), that means strikingly elevated as compared to normally 5.3±2.1 mm Hg (H.-A. Hansson, M. Al-Olama, E. Jennische, K. Gatzinsky and S. Lange (2012). The peptide AF-16 and the AF protein counteract intracranial hypertension. Acta Neurochir. Suppl. 114, 377-382). Eventually, the intracranial pressure exceed 50-60 mm Hg, resulting in herniation of the brain, dislocations and impaired blood circulation, and death (FIG. 5).
The intracranial pressure was raised both in the tumor affected right side and in the contralateral left side, and the pressure dropped to the same extent in either brain hemisphere. Concomitantly, any demonstrable neurological impairment resolved.
Cultured cells of the established glioma cell line RG2, clone N32, were stereotactically deposited in the right striatum of the brain of adult Fisher 344 rats as described in
After 18-22 days a tumor, fulfilling established criteria for glioblastoma, was demonstrable in the right hemisphere, invading adjacent brain parenchyma.
A single dose of the peptide AF-6 (1-2 mg/kg body weight, dissolved in water) was instilled in the nose of a Fisher rat with an experimental glioblastoma tumor of the RG2-N32 origin at day 21 after implantation. About 15 min later the intracranial pressure started to dropped from 25-27 mm Hg to 17.7 mm Hg (FIG. 7).

In series [2] the test system is GL261 glioma tumor in the right brain hemisphere. The series is described as follows: Intracranial / interstitial fluid pressure in mice with GL261 glioma after nasal peptide. The series is classed as in vivo, C57/BI/6 mice. An excerpt:
Adult C57/BI/6 mice were purchased from B & K, Sollentuna, Sweden. The body weight was 23 g and the animals had water and pelleted feed ad libitum. Permission to the experiments was granted by the Regional Animal Experiments Ethical Committee, and national and EU rules were followed.
The GL261 mouse glioma cell line was of C57/BI/6 origin and cultured in the Rausing laboratory, BMC, Lund University, according to an established protocol (K. Enell Smith, S. Fritzell, W. Badn, S. Eberstål, S. Janelidze, E. Visse, A. Darabi and P. Siesjö (2008). Cure of established GL261 mouse gliomas after combined immunotherapy with GM-CSF and IFNγ is mediated by both CD8^+ and CD4^+ T-cells. Int. J. Cancer 124, 630-637).
C57/BI/6 mice had each 5.000 GL261 glioma cells in 5 μL tissue culture medium stereo tactically deposited in deep brain structure in the right brain hemisphere. An expanding tumor was formed and had 22 days later a diameter of 3-5 mm.
The six AA peptide AF-6 (SEQ ID NO:2) (manufactured by solid phase synthesis by K J Ross-Petersen ApS, Copenhagen, with >95% purity and TFA as counter ion) was selected to be investigated for its ability to reduce the increased intracranial pressure (ICP) inevitably evolving at this stage of tumor development.
A mouse with a GL261 tumor in the right brain hemisphere was anaesthetized with isofluran and positioned in a stereotactic holder. […]

For series [3], the system named is RG2, clone N32 glioblastoma tumor cell nuclei. The series is described as follows: Uptake of tracer doxorubicin into glioblastoma cell nuclei of rats (fluorescence microscopy). The class given is in vivo, Fisher 344 rats.
Excerpt: The aim of this experiment was to investigate if treatment with AF-16 increased the penetration of a marker through the tumor cells membrane and subsequent entrance and distribution in their nuclei. Doxorubicin was selected as a tracer for the reason that it is an established cytotoxic drug with a molecular mass of 543.52 g/mol, i.e. being considered as a fairly low molecular mass substance. Further, doxorubicin has a red color and when exposed to light emits a red fluorescence. Doxorubicin is strongly intercalating with the DNA in cell nuclei. This means that if a red fluorescence is observed in a cell nucleus the marker has been reached its target, the tumor cells. It is known that glioblastoma cells, in humans as in animals, prevent the entrance of chemotherapeutic substances into the tumor cells, and consequently no beneficial effects are attained. The most important barrier to the drug is prevailing at the surface of the tumor cells.
as §1
Cultured cells of the established glioma cell line RG2, clone N32, were stereotactically deposited in the right striatum of the brain of adult Fisher 344 rats as described in Example 1. After 20 days a tumor, fulfilling established criteria for being a glioblastoma, was present in the right brain hemisphere of either rat.
AF-16, 1 mg per kg body weight, dissolved in water and administrated as a single dose in a volume of 10 μL, was instilled in the nostrils of anaesthetized Fisher rats. […] Cryostat microtome sections were prepared of the brains, and examined with the aid of fluorescence microscope.
That means that very few doxorubicin molecules entered the tumor cells.

Series [4] has as its system experimentally induced glioblastoma tumor cell nuclei. Put plainly: Uptake and binding of doxorubicin to tumor cell nuclei in mice with experimentally induced glioblastoma. The class given is in vivo. As to conditions: additional experiments.
Setting [5] is: single nasal instillation 1-4 mg/kg body weight.
[6] abbreviates: AF-16 1 mg per kg body weight nasally, 1 h before i.v. doxorubicin 10 mg per kg, sacrificed 30 min later.
[7] abbreviates: AF-16 4 mg/kg bw nasally 1 h prior to i.v. doxorubicin 10 mg/kg bw, brains removed 30 min later.

The record followed here is patent US20190192622A1, “Use of Antisecretory Factor (AF) in Glioblastoma Treatment” (LANTMÄNNEN AS-FAKTOR AB, priority 2012, published 2019).

Where a SMILES comes first, the peptide text is derived from it.

Consider `C[C@@H](O)[C@H](NC(=O)[C@H](CCCCN)NC(=O)[C@H](CO)NC(=O)[C@H](Cc1c[nH]cn1)NC(=O)[C@@H](N)CS)C(=O)N[C@@H](CCCNC(=N)N)C(=O)O` [AF-6, CHSKTR] (H-CHSKTR-OH), for which the figures for the side effects result in series [1] (single nasal dose 1-2 mg/kg body weight) and in series [2] (nasal 5 mg per kg body weight) were “No side effects could be disclosed” and “No side effects were noticed”, respectively.

Take “VCHSKTRSNPENNVGL (Variant (2)..(2) C may be replaced by S; Variant (3)..(3) H may be replaced by R or K; Variant (4)..(4) S may be replaced by L; Variant (6)..(6) T may be replaced by A) [AF-16, a peptide composed of the amino acids …, fragment of antisecretory factor protein]”: the “effect on raised intracranial pressure (summary statement)” value in series [1] (animals with experimentally induced glioblastoma, tumor and contralateral hemisphere) is on record as “lower the raised intracranial pressure”. Also, in series [1] (nasal AF-16 4 mg/kg bw), the “start of intracranial pressure decrease after nasal administration” value was “about 12 minutes”. In series [1] (nasal AF-16 4 mg/kg bw, in half an hour, either brain hemisphere), the intracranial pressure attained is given as roughly 20 mm Hg. In series [1] (setting [5]), the “duration of the beneficial effects on intracranial pressure” value fell in the range of 4 to 6 h and the “time to reduction of the high intracranial pressure” value lay in the range of 15 to 30 min. Further, the “intracranial pressure after reduction (acceptable level)” value in series [1] (single nasal instillation 1-4 mg/kg body weight in 10 μL water, baseline 25-50 mm Hg, both hemispheres) is given as no more than 20 mm Hg. In series [1] (single nasal instillation 1-4 mg/kg body weight, concomitant with pressure drop), the demonstrable neurological impairment entry is “resolved”. Further, the “effect on raised intracranial pressure (statement in words)” value in series [2] (mice with experimentally induced glioblastoma) is “reduced the high intracranial pressure”. In series [3] (setting [6]), the “doxorubicin staining of the tumor cell nuclei” value was “strong red staining” and the “proportion of tumor cells labeled by doxorubicin” value is on record as “a large proportion of these cells were labeled”. In addition, in series [3] (setting [7]), the “frequency of doxorubicin-stained tumor cell nuclei vs vehicle pretreatment” value was “increased” and the “intensity of doxorubicin staining of tumor cell nuclei vs vehicle pretreatment” value is on record as “increased”. Also, in series [3] (animals with experimentally induced glioblastoma), the “effect on uptake of doxorubicin by tumor cell nuclei (summary statement)” value is listed as “efficiently improved the uptake”. Moreover, the “effect on uptake and binding of doxorubicin to tumor cell nuclei” value in series [4] was “facilitated the uptake and binding of doxorubicin to tumor cell nuclei”.
